Entries after “also recorded” stand apart in the source; their conditions may differ.
What was measured:
[1] = tested on: GSDMD regulated cytokines; assay: Cytokine level of tumour interstitial fluid of M3-9-M^OVA tumours; assay type: in vivo, mouse
Method: Cells were seeded in a 96-well plate at a density of 0.5-1.0×10^6 cells/well and treated with PRR agonists in combination with or without metabolites. To measure cytokine levels, culture supernatant was collected at specific timepoints. To check cytokine levels of the tumour interstitial fluid, samples were prepared following the protocol, as mentioned by Kim et al (Nat. Commun. 8, (2017)). Cellular IL-1 levels were determined by incubating HEK-Blue™ IL-1β cells ([…]) with the collected culture supernatant and measuring the SEAP levels in the culture medium using QUANTI-Blue™ solution ([…]). Multiplexed quantification of cytokines, chemokines, and growth factors was also conducted by Eve Technologies Corp. (Calgary, Alberta) using the Luminex™ 200 system (Luminex, Austin, TX, USA).

OVA-specific CD8 T cells = assay: Flow cytometry of OVA-specific CD8 T cells within M3-9-M^OVA tumours; assay type: in vivo, mouse; details: male IMDM-CR mice, 18 days after implantation
Method: Tumours were isolated from mice and single cell suspensions were made using a mouse tumour dissociation kit following the manufacturer's instructions (Miltenyi Biotec). The isolated tumours were minced into pieces ~2-4 mm in diameter using a sterile scalpel, homogenized the tumour samples in RPMI 1640 media and enzyme mix for 1 minute, and incubated the homogenates for 40 minutes with continuous gentle shaking at 37° C. The homogenates were then filtered through a 70 μm cell strainer followed by centrifuging the single cell suspensions. The red blood cells (RBC) were removed using RBC lysis buffer. A Percoll gradient based leukocyte separation was performed followed by live and dead cell staining using Zombie Aqua dye (BioLegend). Cell surface markers were stained using ant-CD4-FITC (clone RM4-4, BioLegend), anti-CD8-PE.Cy7 (clone 53-6.7, BioLegend), anti-CD3-BV421 (clone 145-2C11, BioLegend), anti-CD45-APC.Cy7 (clone 30-F11, BioLegend), anti-PD-1-FITC (clone 29F.1A12, BioLegend), anti-TIM3-PE (clone RMT3-23, BioLegend) and anti-LAG3-PerCP/Cy5.5 (clone C9B7W, BioLegend) for T lymphocytes. For OVA-specific CD8 T cell detection, H-2K(b) chicken ova 257-264 human B2M SIINFEKL Alexa 647-labeled tetramer was used. The cells were washed after staining with FACS buffer and quantified using the Attune NxT Flow Cytometer (Thermo Fisher Scientific).

GSDMD = target: T1, GSDMD (Homo sapiens, UniProt P57764); assay: Western blot of GSDMD cleavage in THP-1 cells; assay type: cell-based
T1 construct: host or cells: THP1-Dual cells (human monocytic reporter line)
T1 sequence (P57764 1-484): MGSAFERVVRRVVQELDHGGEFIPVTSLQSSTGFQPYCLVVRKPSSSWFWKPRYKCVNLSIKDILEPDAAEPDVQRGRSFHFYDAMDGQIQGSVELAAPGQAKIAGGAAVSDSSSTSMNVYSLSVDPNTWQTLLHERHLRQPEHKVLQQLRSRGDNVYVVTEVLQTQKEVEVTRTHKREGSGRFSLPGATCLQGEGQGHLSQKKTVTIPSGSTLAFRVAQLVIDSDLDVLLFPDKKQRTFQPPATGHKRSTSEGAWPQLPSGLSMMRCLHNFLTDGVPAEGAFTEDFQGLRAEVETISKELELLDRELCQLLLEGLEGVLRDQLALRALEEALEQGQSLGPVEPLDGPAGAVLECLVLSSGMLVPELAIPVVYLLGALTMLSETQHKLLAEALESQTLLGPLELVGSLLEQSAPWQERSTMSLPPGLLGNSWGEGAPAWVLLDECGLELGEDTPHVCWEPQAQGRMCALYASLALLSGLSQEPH
Method: Cells were collected and lysates prepared using total lysis buffer (50 mM Tris-HCl, pH 8.0; 150 mM NaCl; 1% Triton X-100; 1% SDS). The supernatant was obtained by centrifuging at 10,000 RPM for 10 minutes at 4° C. using a benchtop PCR centrifuge. Protein quantification was performed using the Bio-Rad DC Protein Assay Kit (Bio-Rad, NC, USA). Proteins were separated using 12% SDS-PAGE gels and transferred to a PVDF membrane using the Bio-Rad Trans-turbo semi-dry transfer apparatus at 25 V/1 A for 1 hour. The membrane was blocked with Tris-buffered-saline-Tween-20™ (TBST) containing 5% skim milk for 30 minutes at room temperature. The membrane was then probed overnight at 4° C. with rabbit monoclonal recombinant anti-GSDMD antibody (ab210070, Abcam), anti-cleaved N-terminal GSDMD antibody (ab215203, Abcam) and mouse anti-actin monoclonal antibody (MAB1501, MilliporeSigma) for human FL-GSDMD, CL-GSDMD and actin. The next day, the membranes were washed with TBST three times and probed with goat anti-rabbit (1706515, Bio-Rad) or goat anti-mouse (1706516, Bio-Rad) horseradish peroxidase-conjugated IgG for 1 hour at room temperature. The secondary antibodies were diluted in TBST containing 5% (w/v) skim milk at 1:5000 and the membranes washed with TBST before detecting the proteins of interest using the Clarity™ Western ECL Substrate (Bio-Rad) on a Chemidoc-IT Imager (UVP, Upland, CA, USA).

M3-9-M tumours = assay: Orthotopic M3-9-M rhabdomyosarcoma: tumour immune surveillance, growth, overall survival
Method: Tumour cells were orthotopically implanted into 6-8 week old mice. […] For experiments with rhabdomyosarcoma models, mice were orthotopically implanted with 1.5×10^5 M3-9-M or M3-9-M^OVA cells in 50 μL of PBS into the right-behind leg gastrocnemius muscle using an insulin syringe. RMS tumour volume was calculated by subtracting the volume of the gastrocnemius muscle before tumour implantation from the volume after tumour implantation (length×width×height). […] Tumour measurements were taken twice weekly using skin calipers, from implantation day to either experimental or humane endpoints.
Metabolite compounds were obtained from Sigma-Aldrich and prepared into metabolite stock solutions by dissolving them into UltraPure™ DNase/RNase-Free Distilled Water (Invitrogen™) with 1.0N NaOH (Sigma). The pH of the stock solutions was adjusted to 7.4-7.6 and determination of the endotoxin level of the solutions was completed through a limulus amebocyte lysate (LAL) test. […] To test the metabolite effects on anti-tumour immunity, 100 μL of the metabolite at 83 mg/kg bodyweight per mouse was administered intraperitoneally every 48 hours for seven doses. […] Three doses of 250 μg of either anti-PD-1 or anti-PD-L1 were administered intraperitoneally post tumour implantation on day 10, 13 and 16. To neutralize CD8 T cell in mice, anti-CD8 (clone 2.43; BioXcell) monoclonal antibody was used. 250 μg of anti-CD8 antibody in PBS per mouse was injected intraperitoneally 7 and 1 day before tumour implantation, followed by administering 100 μg of anti-CD8 in PBS into the mice on day 3, 7, and 10.

Question: For `O=C(O)CCc1ccccc1O` [Compound I-1, 3-(2-hydroxyphenyl)propanoic acid], which IL-1β release ([1]; M3-9-M^OVA tumours) is on record?
Answer: notable increase

Question: What about the “secretion of GSDMD regulated cytokines / cytokine milieu in TME” value ([1]; male JAX C57BL/6 mice, 14 days, treatment from day 1, listed as 3,2-HPP) of the same compound?
Answer: impacted the secretion; also recorded: significantly shifts

Question: What about the “expression of exhaustion markers PD1, TIM3, LAG3 on OVA-specific CD8 T cells” value (OVA-specific CD8 T cells) of the same compound?
Answer: no significant changes

Question: And the “frequency of OVA-specific CD8 T cells in the tumour” value (OVA-specific CD8 T cells)?
Answer: increase the frequency

Question: And the “GSDMD cleavage in the presence of LPS or LPS+NG stimulation” value (GSDMD)?
Answer: facilitating gasdermin D cleavage

Question: And the “overall survival, combination with ABX vs either treatment alone” value (M3-9-M tumours; female IMDM-CR mice, M3-9-M tumours, ABX plus 3,2-HPP)?
Answer: even higher overall survival

Question: What about the “overall survival, combination with anti-PD-1 vs anti-PD-1 alone” value (M3-9-M tumours; female IMDM-CR mice, M3-9-M tumours, 3,2-HPP i.p. plus anti-PD-1) of the same compound?
Answer: further improvement

Question: What about the “efficacy of treatment after depletion of CD8 T cells” value (M3-9-M tumours; female IMDM-CR mice, M3-9-M, anti-CD8 neutralizing antibody (clone 2.43)) of the same compound?
Answer: abrogated the efficacy

Question: What about the “immune surveillance of M3-9-M tumours (overall survival)” value (M3-9-M tumours; female IMDM-CR mice, i.p. treatment from day 1 post-implantation vs vehicle) of the same compound?
Answer: enhance the immune surveillance

Question: And the “effect on ABX-reduced immune surveillance” value (M3-9-M tumours; female IMDM-JAX mice on ABX-supplemented drinking water, M3-9-M tumours)?
Answer: counteracted the negative effect of ABX

Question: What about the overall survival (M3-9-M tumours; female IMDM-JAX mice, M3-9-M tumours, i.p. 3,2-HPP) of the same compound?
Answer: increased the overall survival

Question: What about the “response of non-immunogenic M3-9-M tumours to treatment” value (M3-9-M tumours; male IMDM-CR mice, i.p. treatment from day 1) of the same compound?
Answer: did not respond

Source: US20260272865A1, “HYDROXYPHENYL PROPANOATE COMPOUNDS FOR TUMOUR IMMUNOTHERAPY, COMPOSITIONS AND USES THEREOF” (UTI LIMITED PARTNERSHIP, priority 2023, published 2026)
